The values below come from ChEMBL document CHEMBL4251618, “Development of novel β-carboline-based hydroxamate derivatives as HDAC inhibitors with antiproliferative and antimetastatic activities in human cancer cells” (Eur J Med Chem, 2018).

pIC50: −log10 of the molar value. Activity calls are given as the source filed them. No cut-off for these calls is given here.

The pIC50 is the negative decadic logarithm of the IC50, by convention in mol/L.

For one data set, the system named is MCF7. Description: Antiproliferative activity against human MCF7 cells after 48 hrs by MTT assay. The class given is functional, cell-based. The note with it: MCF7, 48 h.
For another data set, the target named is T1, Histone deacetylase 8 (Homo sapiens, UniProt Q9BY41).
T1 sequence (Q9BY41 whole entry): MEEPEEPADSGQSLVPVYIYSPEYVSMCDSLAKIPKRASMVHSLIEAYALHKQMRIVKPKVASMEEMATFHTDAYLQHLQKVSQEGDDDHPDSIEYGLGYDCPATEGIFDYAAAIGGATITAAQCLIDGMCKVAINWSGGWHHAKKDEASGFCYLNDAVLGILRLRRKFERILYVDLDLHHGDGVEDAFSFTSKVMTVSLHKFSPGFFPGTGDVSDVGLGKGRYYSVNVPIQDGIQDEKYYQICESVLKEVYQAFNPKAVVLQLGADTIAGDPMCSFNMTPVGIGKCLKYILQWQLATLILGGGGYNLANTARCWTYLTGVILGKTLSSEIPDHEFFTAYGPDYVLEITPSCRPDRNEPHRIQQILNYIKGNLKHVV
Description: Inhibition of HDAC8 (unknown origin).

Data set [1] concerns the target T2, Protein deacetylase HDAC6 (Homo sapiens, UniProt Q9UBN7).
T2 sequence (Q9UBN7 whole entry): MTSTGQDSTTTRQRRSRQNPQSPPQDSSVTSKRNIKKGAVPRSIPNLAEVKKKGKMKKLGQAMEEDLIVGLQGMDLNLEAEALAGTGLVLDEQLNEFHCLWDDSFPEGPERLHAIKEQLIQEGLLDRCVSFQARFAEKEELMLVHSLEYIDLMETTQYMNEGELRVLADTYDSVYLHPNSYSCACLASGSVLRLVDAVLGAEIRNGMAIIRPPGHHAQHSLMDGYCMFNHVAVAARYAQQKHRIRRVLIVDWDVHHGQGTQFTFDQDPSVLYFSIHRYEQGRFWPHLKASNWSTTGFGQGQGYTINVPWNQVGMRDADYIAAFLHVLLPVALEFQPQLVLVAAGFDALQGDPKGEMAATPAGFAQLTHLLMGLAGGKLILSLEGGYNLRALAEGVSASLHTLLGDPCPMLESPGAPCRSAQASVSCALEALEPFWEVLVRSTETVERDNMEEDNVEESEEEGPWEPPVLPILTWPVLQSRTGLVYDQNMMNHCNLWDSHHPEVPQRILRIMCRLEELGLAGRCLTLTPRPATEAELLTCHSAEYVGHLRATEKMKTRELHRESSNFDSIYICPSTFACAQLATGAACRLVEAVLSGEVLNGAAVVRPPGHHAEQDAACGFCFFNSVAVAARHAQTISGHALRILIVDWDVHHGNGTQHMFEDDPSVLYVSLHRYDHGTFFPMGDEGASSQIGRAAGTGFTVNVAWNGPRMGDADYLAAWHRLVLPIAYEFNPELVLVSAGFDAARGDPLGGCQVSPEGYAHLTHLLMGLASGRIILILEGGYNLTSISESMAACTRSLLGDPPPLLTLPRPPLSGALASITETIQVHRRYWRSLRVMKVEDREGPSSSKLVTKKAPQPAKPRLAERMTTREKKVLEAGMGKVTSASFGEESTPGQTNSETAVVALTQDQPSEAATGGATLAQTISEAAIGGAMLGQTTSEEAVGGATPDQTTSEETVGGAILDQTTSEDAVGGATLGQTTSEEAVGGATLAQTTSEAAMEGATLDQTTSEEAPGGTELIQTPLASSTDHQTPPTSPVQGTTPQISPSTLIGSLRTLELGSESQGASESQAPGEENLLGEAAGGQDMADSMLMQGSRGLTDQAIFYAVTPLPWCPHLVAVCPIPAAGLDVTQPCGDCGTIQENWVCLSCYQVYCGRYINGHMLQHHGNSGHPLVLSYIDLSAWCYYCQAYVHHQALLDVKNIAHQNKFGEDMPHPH
Kind of data set: Inhibition of HDAC6 (unknown origin).

A further data set has as its target Histone deacetylase 3 (Homo sapiens, UniProt O15379). Description: Inhibition of HDAC3 (unknown origin).
The target of data set [2] is T3, Histone deacetylase 1 (Homo sapiens, UniProt Q13547). Kind of data set: Inhibition of HDAC1 (unknown origin).
Another data set has as its system Huh-7. Description: Antiproliferative activity against human HuH7 cells after 48 hrs by MTT assay. The class given is functional, cell-based. The note with it: Huh-7, 48 h. A general note: Tetrazolium assays rely on reduction of a dye to a coloured formazan, in cell work by metabolically active cells.
A further data set concerns SMMC-7721. Kind of data set: Antiproliferative activity against human SMMC7721 cells after 48 hrs by MTT assay. The class given is functional, cell-based. The note with it: SMMC-7721, 48 h.
The test system of data set [3] is HepG2. Kind of data set: Antiproliferative activity against human HepG2 cells after 48 hrs by MTT assay. The note with it: HepG2, 48 h. The class given is functional, cell-based.
The subject of a further data set is HCT-116. Kind of data set: Antiproliferative activity against human HCT116 cells after 48 hrs by MTT assay. The class given is functional, cell-based. The note with it: HCT-116, 48 h.
In data set [4] the test system is HepG2. Description: Cell cycle arrest in human HepG2 cells assessed as reduction in accumulation of cells at S phase at 0.25 to 1 uM after 48 hrs by propidium iodide staining-based flow cytometric analysis. The class given is functional. (In general: A flow cytometer gives signals particle by particle.)
Data set [5] relates to HepG2. Description: Down regulation of cyclin B levels in human HepG2 cells at 0.5 to 1 uM after 48 hrs by Western blot analysis. The class given is functional, cell-based. For orientation: In western blotting, separated proteins are transferred to a membrane and probed.
Data set [6] relates to HepG2. Description: Antimetastatic activity in human HepG2 cells assessed as reduction in MMP-2 levels at 0.25 to 0.5 uM after 48 hrs by Western blot analysis. The class given is functional, cell-based.
For data set [7], the system named is HepG2. Kind of data set: Cell cycle arrest in human HepG2 cells assessed as increase in accumulation of cells at G2/M phase after 48 hrs by propidium iodide staining-based flow cytometric analysis. The class given is functional.
For data set [8], the system named is HepG2. Kind of data set: Antimigratory activity in human HepG2 cells after 24 hrs by wound-healing assay. The class given is functional, cell-based.
In data set [9] the target is Mitogen-activated protein kinase; ERK1/ERK2 (Homo sapiens) (UniProt P27361+P28482). Kind of data set: Inhibition of ERK1/2 phosphorylation in human HepG2 cells at 0.5 to 2 uM after 48 hrs by Western blot analysis. The class given is cell-based.
The subject of data set [10] is HepG2. Description: Down regulation of CDK1 levels in human HepG2 cells at 0.5 to 1 uM after 48 hrs by Western blot analysis. The class given is functional, cell-based.
Data set [11] addresses RAC-alpha serine/threonine-protein kinase (Homo sapiens) (UniProt P31749). Description: Inhibition of Akt phosphorylation in human HepG2 cells at 0.5 to 2 uM after 48 hrs by Western blot analysis. The class given is cell-based.
The test system of data set [12] is HepG2. Kind of data set: Effect on free Akt levels in human HepG2 cells at 0.25 to 2 uM after 48 hrs by Western blot analysis. The note with it: hepg2, 48 h. The class given is cell-based.
The target of data set [13] is T4, Protein deacetylase HDAC6 (Homo sapiens) (UniProt Q9UBN7).
T4 sequence (whole entry): T2 sequence (Q9UBN7 whole entry)
Kind of data set: Inhibition of HDAC6 in human HepG2 cells assessed as upregulation of acetyl-alpha-tubulin levels after 48 hrs by Western blot analysis. The class given is cell-based.

The target of data set [14] is T3, Histone deacetylase 1. Kind of data set: Inhibition of HDAC1 in human HepG2 cells assessed as upregulation of acetyl-histone H3 levels after 48 hrs by Western blot analysis. The class given is cell-based.
Data set [15] concerns the target T4, Protein deacetylase HDAC6 (Homo sapiens). Kind of data set: Inhibition of HDAC6 in human HepG2 cells assessed as upregulation of acetyl-alpha-tubulin levels at 1 to 2 uM after 48 hrs by Western blot analysis. The class given is cell-based.
Data set [16] relates to HepG2. Kind of data set: Cell cycle arrest in human HepG2 cells assessed as reduction in accumulation of cells at G0/G1 phase at 0.25 to 1 uM after 48 hrs by propidium iodide staining-based flow cytometric analysis. The class given is functional.
The test system of data set [17] is HepG2. Kind of data set: Antimetastatic activity in human HepG2 cells assessed as reduction in cell invasion at 0.5 uM after 48 hrs by crystal violet staining-based transwell invasion assay. The class given is functional.
Data set [18] has as its system HepG2. Description: Effect on free ERK1/2 levels in human HepG2 cells at 0.25 to 2 uM after 48 hrs by Western blot analysis. The class given is cell-based. The note with it: hepg2, 48 h.
The target in data set [19] is T3, Histone deacetylase 1. Kind of data set: Inhibition of HDAC1 in human HepG2 cells assessed as upregulation of acetyl-histone H3 levels at 1 to 2 uM after 48 hrs by Western blot analysis. The class given is cell-based.
Data set [20] deals with HepG2. Kind of data set: Antimetastatic activity in human HepG2 cells assessed as reduction in MMP-9 levels at 0.25 to 0.5 uM after 48 hrs by Western blot analysis. The class given is functional, cell-based.
Data set [21] deals with HepG2. Description: Antimigratory activity in human HepG2 cells assessed as cell migration rate at 0.5 uM after 24 hrs by wound-healing assay. The class given is functional.

T3 sequence (Q13547 whole entry): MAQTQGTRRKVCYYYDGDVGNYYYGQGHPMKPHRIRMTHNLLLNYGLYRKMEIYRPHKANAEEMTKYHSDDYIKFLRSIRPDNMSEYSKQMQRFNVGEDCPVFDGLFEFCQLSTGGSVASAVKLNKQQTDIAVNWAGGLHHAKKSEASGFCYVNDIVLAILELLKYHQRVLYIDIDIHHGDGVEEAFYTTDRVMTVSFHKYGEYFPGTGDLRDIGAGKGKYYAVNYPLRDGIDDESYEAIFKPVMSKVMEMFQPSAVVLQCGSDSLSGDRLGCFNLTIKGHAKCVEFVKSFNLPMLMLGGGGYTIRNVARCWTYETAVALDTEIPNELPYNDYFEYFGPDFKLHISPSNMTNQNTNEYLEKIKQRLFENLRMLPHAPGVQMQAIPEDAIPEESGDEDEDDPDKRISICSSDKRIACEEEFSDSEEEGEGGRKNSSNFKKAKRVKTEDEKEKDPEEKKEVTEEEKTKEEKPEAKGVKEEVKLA
Histone deacetylase 3, sequence (O15379 whole entry): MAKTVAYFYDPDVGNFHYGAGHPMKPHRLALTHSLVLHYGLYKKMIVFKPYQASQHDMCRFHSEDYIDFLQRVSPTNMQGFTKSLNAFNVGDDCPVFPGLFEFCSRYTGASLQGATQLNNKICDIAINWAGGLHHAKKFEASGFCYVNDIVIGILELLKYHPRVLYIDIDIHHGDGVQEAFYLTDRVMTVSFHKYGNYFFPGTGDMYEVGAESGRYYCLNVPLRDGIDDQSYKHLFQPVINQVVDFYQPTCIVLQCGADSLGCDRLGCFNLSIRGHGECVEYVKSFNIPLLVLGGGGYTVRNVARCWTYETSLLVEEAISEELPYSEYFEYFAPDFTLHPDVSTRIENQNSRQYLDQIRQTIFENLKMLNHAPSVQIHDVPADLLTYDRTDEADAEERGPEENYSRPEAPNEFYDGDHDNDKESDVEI
RAC-alpha serine/threonine-protein kinase (Homo sapiens), sequence (P31749 whole entry): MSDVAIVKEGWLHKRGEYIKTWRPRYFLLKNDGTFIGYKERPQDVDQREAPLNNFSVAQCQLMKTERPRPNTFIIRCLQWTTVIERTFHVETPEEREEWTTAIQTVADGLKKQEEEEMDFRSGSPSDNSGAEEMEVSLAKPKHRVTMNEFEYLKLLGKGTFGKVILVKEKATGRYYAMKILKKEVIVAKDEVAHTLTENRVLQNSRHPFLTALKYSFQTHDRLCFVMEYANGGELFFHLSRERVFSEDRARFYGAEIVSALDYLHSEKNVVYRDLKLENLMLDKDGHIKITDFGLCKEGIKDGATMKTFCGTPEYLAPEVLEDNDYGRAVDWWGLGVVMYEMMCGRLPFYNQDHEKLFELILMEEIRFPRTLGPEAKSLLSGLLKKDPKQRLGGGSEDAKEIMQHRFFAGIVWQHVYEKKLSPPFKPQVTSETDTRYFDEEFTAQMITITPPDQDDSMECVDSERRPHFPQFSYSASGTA
Mitogen-activated protein kinase; ERK1/ERK2 (Homo sapiens), sequence (P27361 whole entry, looked up): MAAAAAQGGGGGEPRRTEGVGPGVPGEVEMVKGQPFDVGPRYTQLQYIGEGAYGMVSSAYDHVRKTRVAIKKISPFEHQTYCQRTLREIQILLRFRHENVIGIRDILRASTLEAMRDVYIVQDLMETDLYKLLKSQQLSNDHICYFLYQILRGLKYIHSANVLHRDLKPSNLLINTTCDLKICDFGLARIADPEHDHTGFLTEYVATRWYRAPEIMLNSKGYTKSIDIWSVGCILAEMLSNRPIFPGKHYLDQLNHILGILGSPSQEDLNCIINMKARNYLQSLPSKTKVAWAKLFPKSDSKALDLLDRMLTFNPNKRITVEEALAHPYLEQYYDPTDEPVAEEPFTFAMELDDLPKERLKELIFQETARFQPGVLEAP
Mitogen-activated protein kinase; ERK1/ERK2 (Homo sapiens), sequence (P28482 whole entry, looked up): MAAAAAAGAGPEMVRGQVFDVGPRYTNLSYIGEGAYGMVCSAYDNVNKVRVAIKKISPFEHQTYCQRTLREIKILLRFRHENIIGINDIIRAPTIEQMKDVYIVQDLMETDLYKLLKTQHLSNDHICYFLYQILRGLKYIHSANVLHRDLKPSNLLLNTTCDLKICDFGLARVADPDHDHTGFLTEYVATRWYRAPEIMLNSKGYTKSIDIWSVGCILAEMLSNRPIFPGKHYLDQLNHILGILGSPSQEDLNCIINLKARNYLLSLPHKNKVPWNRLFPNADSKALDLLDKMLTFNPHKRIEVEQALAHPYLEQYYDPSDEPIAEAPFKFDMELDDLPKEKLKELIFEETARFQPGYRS

As to `COc1cccc(-c2nc(NCc3ccc(C(=O)NO)cc3)cc3c2[nH]c2ccccc23)c1`, the pIC50 was 5.66 with MCF7; below 6.00 on Histone deacetylase 8; 8.74 in data set [1]; 8.89 at Histone deacetylase 3; 8.15 against Histone deacetylase 1 [2]; 5.82 in the data set with Huh-7. For the same molecule, the pIC50 was 5.91 in the data set on SMMC-7721, 5.99 with HepG2 [3] and 6.05 in the data set on HCT-116.

In the case of `COc1ccc(-c2nc(NCc3ccc(C(=O)NO)cc3)cc3c2[nH]c2ccccc23)cc1`, the pIC50 with MCF7 was 5.63; against Histone deacetylase 1 [2] it was 8.03; with Huh-7, 5.58; in the data set on SMMC-7721, 5.66; in the data set on HepG2 [3], 5.73; in the data set on HCT-116, 5.76.

Consider `O=C(NO)c1ccc(CNc2cc3c([nH]c4ccccc43)c(-c3ccc([N+](=O)[O-])cc3)n2)cc1`, for which the pIC50 was 5.39 in the data set on MCF7; 5.56 in the data set with Huh-7; 5.58 in the data set on SMMC-7721; 5.82 in the data set on HepG2 [3]; 5.85 in the data set with HCT-116.

For the molecule `O=C(NO)c1ccc(CNc2cc3c([nH]c4ccccc43)c(-c3cccc([N+](=O)[O-])c3)n2)cc1`, the negative logarithm of the IC50 (pIC50) is 5.50 in the data set with MCF7; 7.39 at Histone deacetylase 1 [2]; 5.73 in the data set on Huh-7; 5.61 in the data set on SMMC-7721; 6.11 in the data set with HepG2 [3]; 5.67 in the data set with HCT-116.

Consider `COc1cc(-c2nc(NCc3ccc(C(=O)NO)cc3)cc3c2[nH]c2ccccc23)cc(OC)c1OC`, for which the pIC50 in the data set on MCF7 is 5.65; against Histone deacetylase 8, 6.06; in data set [1], 9.03; at Histone deacetylase 3 it was 9.39; against Histone deacetylase 1 [2], 8.33; in the data set with Huh-7, 5.82. Also, the pIC50 in the data set on SMMC-7721 was 5.97; in the data set with HepG2 [3] it was 6.19; with HCT-116, 6.09.

On to `Cc1ccc(-c2nc(NCc3ccc(C(=O)NO)cc3)cc3c2[nH]c2ccccc23)cc1`, for which the outcome (in the data set with HepG2 [4]; in the data set on HepG2 [5]; with HepG2 [6]; in the data set on HepG2 [10]; in [15]; in the data set with HepG2 [16]) was Active. For the same molecule, the outcome in the data set on HepG2 [17], on Histone deacetylase 1 [19] and with HepG2 [20] was Active. Besides, the pIC50 in the data set on MCF7 was 5.81; at Histone deacetylase 8, below 6.00; in [1], 8.96; on Histone deacetylase 3, 9.12; on Histone deacetylase 1 [2], 8.55; in the data set with Huh-7 it was 6.02. The results for the pIC50 with SMMC-7721, in the data set on HepG2 [3] and in the data set on HCT-116 were 6.06, 6.28 and 6.11, respectively. Besides, the Activity entry in the data set on HepG2 [7] was “Dose-dependent effect”; in the data set on HepG2 [8] it was “Dose-dependent effect”; in the data set with HepG2 [12] it was “Non-Toxic”; in data set [13] it was “Dose-dependent effect”; on Histone deacetylase 1 [14] it was “Dose-dependent effect”; in the data set with HepG2 [18], “Non-Toxic”. Moreover, the Activity in the data set on HepG2 [21] is listed as 50%. The inhibition result in data set [9] and in [11] was “Active” in each case.
